biological target: FGFR2 (Homo sapiens, UniProt P21802); experiment: FGFR wild type enzyme assay (HTRF KinEASE-TK), FGFR2; settings: Enz FGFR2 (nM), FGFR2 wild type enzyme
Sequence (P21802 399-821 limits assumed): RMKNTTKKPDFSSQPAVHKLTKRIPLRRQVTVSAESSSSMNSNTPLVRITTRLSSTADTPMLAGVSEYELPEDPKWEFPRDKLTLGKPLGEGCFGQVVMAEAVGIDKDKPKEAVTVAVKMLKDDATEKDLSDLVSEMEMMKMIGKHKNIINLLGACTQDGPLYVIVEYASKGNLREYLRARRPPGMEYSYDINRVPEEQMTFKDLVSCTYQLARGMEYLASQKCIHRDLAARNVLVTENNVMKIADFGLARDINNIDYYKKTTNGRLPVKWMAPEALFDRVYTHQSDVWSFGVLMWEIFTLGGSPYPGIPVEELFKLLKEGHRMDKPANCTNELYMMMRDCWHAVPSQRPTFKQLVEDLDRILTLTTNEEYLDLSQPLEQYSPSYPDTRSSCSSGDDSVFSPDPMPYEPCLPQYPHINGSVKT

Row | IC50 | Compound
1 | 3 nM | CN[C@]1(C)CC[C@H](n2ncc(-c3cc(Sc4ccc(F)cn4)c4c(C#N)cnn4c3)c2C)CC1 [Example 292, 4-((5-fluoropyridin-2-yl)thio)-6-(5-methyl-1-((1s,4s)-4-methyl-4-(methylamino)cyclohexyl)-1H-pyrazol-4-yl)pyrazolo[1,5-a]pyridine-3-carbonitrile]
2 | 1 nM | N#Cc1cnn2cc(-c3cnn([C@H]4CC[C@@H](O)CC4)c3)cc(Sc3ncccc3F)c12 [Example 293, 4-((3-fluoropyridin-2-yl)thio)-6-(1-((1s,4s)-4-hydroxycyclohexyl)-1H-pyrazol-4-yl)pyrazolo[1,5-a]pyridine-3-carbonitrile]
3 | 0.5 nM | N#Cc1ccccc1Sc1cc(-c2cnn([C@H]3CC[C@@H](O)CC3)c2)cn2ncc(C#N)c12 [Example 294, 4-((2-cyanophenyl)thio)-6-(1-((1s,4s)-4-hydroxycyclohexyl)-1H-pyrazol-4-yl)pyrazolo[1,5-a]pyridine-3-carbonitrile]
4 | 1 nM | CN[C@]1(C)CC[C@H](n2ncc(-c3cc(Sc4ncccc4F)c4c(C#N)cnn4c3)c2C)CC1 [Example 295, 4-((3-fluoropyridin-2-yl)thio)-6-(5-methyl-1-((1s,4s)-4-methyl-4-(methylamino)cylcohexyl)-1H-pyrazol-4-yl)pyrazolo[1,5-a]pyridine-3-carbonitrile]
5 | 2 nM | Cc1c(-c2cc(Sc3ncccc3F)c3c(C#N)cnn3c2)cnn1[C@@H]1CC[C@H](O)[C@H](O)C1 [Example 296, 6-(1-((1R,3R,4S)-3,4-dihydroxycyclohexyl)-5-methyl-1H-pyrazol-4-yl)-4-((3-fluoropyridin-2-yl)thio)pyrazolo[1,5-a]pyridine-3-carbonitrile]
6 | 0.3 nM | Cc1c(-c2cc(Sc3ccccc3C#N)c3c(C#N)cnn3c2)cnn1[C@H]1CC[C@@](C)(N)CC1 [Example 297, 6-[1-(4-amino-4-methyl-cyclohexyl)-5-methyl-pyrazol-4-yl]-4-(2-cyanophenyl) sulfanylpyrazolo[1,5-a]pyridine-3-carbonitrile]
7 | 0.5 nM | CN(C)[C@H]1CC[C@@H](n2cc(-c3cc(Sc4ccccc4C#N)c4c(C#N)cnn4c3)cn2)CC1 [Example 298, 4-((2-cyanophenyl)thio)-6-(1-((1s,4s)-4-(dimethylamino)cyclohex-yl)-1H-pyrazol-4-yl)pyrazolo[1,5-a]pyridine-3-carbonitrile]
8 | 1 nM | CC(=O)N[C@H]1CC[C@@H](n2ncc(-c3cc(Sc4ccc(F)cc4C#N)c4c(C#N)cnn4c3)c2C)CC1 [Example 299, N-((1s,4S)-4-(4-(3-cyano-4-((2-cyano-4-fluorophenyl)thio)pyrazolo [1,5-a]pyridin-6-yl)-5-methyl-1H-pyrazol-1-yl)cyclohexyl)acetamide]
9 | 1 nM | Cc1c(-c2cc(Sc3ccc(F)cc3C#N)c3c(C#N)cnn3c2)cnn1[C@H]1C[C@H]2CC[C@@H](C1)N2C [Example 300, 4-((2-cyano-4-fluorophenyl)thio)-6-(5-methyl-1-((1R,3r,5S)-8-methyl-8-azabicyclo[3.2.1]octan-3-yl)-1H-pyrazol-4-yl)pyazolo[1,5-a]pyridine-3-carbonitrile]
10 | 1 nM | Cc1c(-c2cc(Sc3ccc(F)cc3C#N)c3c(C#N)cnn3c2)cnn1[C@H]1CC[C@H](NC(=O)CO)CC1 [Example 301, N-((1r,4r)-4-(4-(3-cyano-4-((2-cyano-4-fluorophenyl)thio)pyrazolo [1,5-a]pyridin-6-yl)-5-methyl-1H-pyrazol-1-yl)cyclohexyl)-2-hydroxyacetamide]
11 | 4 nM | Cc1c(-c2cc(Sc3ccccn3)c3c(C#N)cnn3c2)cnn1[C@H]1CC[C@@H](O)CC1 [Example 302]
12 | 6 nM | Cc1nn(C2CCN(C)CC2)c(C)c1-c1cc(Sc2ncccc2F)c2c(C#N)cnn2c1 [Example 303, 6-(3,5-dimethyl-1-(1-methylpiperidin-4-yl)-1H-pyrazol-4-yl)-4-((3-fluoropyridin-2-yl)thio)pyrazolo[1,5-a]pyridine-3-carbontirile]

Reference: patent US20240270741A1 (Cogent Biosciences, Inc., priority 2023, published 2024)
